{"source": "patent US20250276999A1", "about": "“PEPTIDES FOR PROMOTING HAIR FOLLICLE NEOGENESIS, AND PREVENTION/MITIGATION OF UNTOWARD EFFECTS OF RADIATION TREATMENT” (Trustees of Tufts College, priority 2022, published 2025)", "key": {"[1]": {"system": "X-ray irradiated and wounded mice", "assay": "Combined injury murine model (thoracic X-ray irradiation plus wound)", "format": "in vivo, C57BL/6 mice", "source_text": "The C57BL/6 strain of mice has been utilized extensively for the study of radiation-induced skin injuries. We determined that 16 Gy is the minimal dosage for the induction of radiation burns in C57BL/6 mice that are not repaired within 45 days. Sham irradiated mice without wounds were used as controls for radiation dermatitis, and treated identically as irradiated mice. Wounded mice, without radiation, were used as controls for combined injury.\nAnimals were irradiated in the RS2000 small animal irradiator. The RS2000 provides a cone-shaped radiation field with irradiation at 12.39-40.50 cm from the X-ray source. For dose measurements, irradiation was performed with the following settings: 160 kVp, 25 mA, 90 s irradiation time and 0.3 mm Cu beam filtration. The approximate HVL provided by the manufacturer was 0.62 mm Cu. The University of Wisconsin Medical Radiation Research Center (UW MRRC) provided eight acrylic mouse phantoms with three (1×1×1 mm) Harshaw thermoluminenscence dosimeter (TLD)-100 microcubes (ThermoElectron Corp., Oakwood Village, OH) embedded in each phantom. The cylindrical phantom had dimensions of 27 mm in diameter (D)×65 mm in length (L) and was stabilized by a cylindrical insert 15 mm (D)×27 mm (L) with a 3 mm thick stand. A custom lead shield was placed on the floor of the irradiator, with the mouse thoracic region ˜43.75 cm from the X-ray source. Dose measurements were conducted twice to account for set-up error and reproducibility. TLDs were processed at UW MRRC using a national standard with an expanded uncertainty (k=2) of 5%. The dose rate was reported for each aperture position 1-4 as an absorbed dose rate to water (ADRW, Gy/min) and the two repeated measurements were averaged.\nMice (12-14 weeks of age) were anesthetized using inhaled anesthesia (isoflurane), and the fur was clipped on the dorsal side of the thoracic region. Two days after fur clipping, mice to be used for combined injury were given acetaminophen (150 mg/kg in 0.5 ml sterile saline) by gavage. Animals were then anesthetized with injected anesthesia (150 mg/kg ketamine/18 mg/kg xylazine) and placed in Lucite jigs for exposure to 16.5 Gy thoracic irradiation in the RS2000 X-ray irradiator as previously described. For combined injury, immediately following thoracic irradiation and while still under anesthesia, the area of the skin was scrubbed with betadine or chlorhexidine, followed by cleaning with an alcohol pad. A 9/16 inch diameter punch biopsy tool was used to create a 1 cm wound in the central dorsal thoracic region, roughly in the center of the field of radiation exposure. The panniculus carnosus muscle and overlying skin will be removed. The wound will be left open to air. The size of the wound approximates 15% of the total body skin surface.\nTSN6 peptide (5 μg/day in 50 μl sterile saline) or hepatocyte growth factor (HGF; 3.3 μg/day in 50 μl sterile saline) or vehicle (sterile saline, 50 μl) were injected subcutaneously on days 2, 7 and 10 post-irradiation. Injections were made caudal, adjacent to the irradiated or irradiated/wounded area.\nAnimals were monitored daily for 85 days post-irradiation for both radiation dermatitis and combined injury models. Radiation dermatitis was separately scored for hair loss, erythema, scale, and ulceration. Scoring for erythema, scale and ulceration were previously described: 0=none; 1=minimal; 2=mild; 3=moderate; 4=marked. Because all animals underwent fur clipping prior to irradiation and wounding, scoring for hair loss was determined as failure to regrow hair in the irradiated areas: 0=none; 1=minimal; 2=mild; 3=moderate; 4=marked. Animals were photographed for the measurement of wounds and for dermatitis scoring. […] Weight was measured as an indication of overall health."}, "[2]": {"system": "human hair follicle formation in grafted DECs", "assay": "Dermal-epidermal composites (DECs) grafted onto nude mice", "format": "in vivo, NIH(S)-nu/nu female mice", "description": "We next asked if TNS peptides could increase human hair follicle formation in grafted dermal-epidermal composite cultures. Human dermal papilla cells isolated from temporal scalp dermis and propagated in vitro. Normal foreskin keratinocytes (NFK) were isolated from neonatal foreskins (pooled from 5-7 donors) and were cultured in serum-free medium supplemented with EGF and bovine pituitary extract. Dermal epidermal composites (DECs) were prepared with human dermal papilla cells and NFK and were grafted onto nude mice. Imaging was done at 4 weeks, 6 weeks, 8 weeks, 10 weeks and 12 weeks and staining for hHLA was performed to evaluate hair follicle anatomy (FIG. 3). TSN peptides increased hair follicle generation (FIG. 3) as well as increased epidermal proliferation in vivo (FIG. 4).\nDermal-epidermal composites and grafting: Human dermal papilla cells isolated from temporal scalp dermis (Promocell, Heidelberg, Germany) from a donor (HDP47) were propagated in vitro according to manufacturer's recommendations. Normal foreskin keratinocytes (NFK) were isolated from neonatal foreskins (pooled from 5-7 donors) and were cultured in serum-free medium (Keratinocyte-SFM, Invitrogen), supplemented with EGF and bovine pituitary extract according to manufacturer's recommendation. Dermal epidermal composites (DECs) were prepared with human dermal papilla cells and NFK and were grafted onto nude mice. […]"}, "[3]": {"settings": "16.5 Gy plus wound, s.c. days 2, 7, 10, TSN6 5 μg/day, HGF 3.3 μg/day"}}, "note": "“Also recorded” adds a separate entry of the source.", "data": [{"sequence": "HSPDIQLQKGLTFEPIQIK [TSN6, 19 amino acid peptide derived from multimerin-1, Coiled coil domain]", "values": [{"measurement": "time to wound closure in the presence of radiation", "setting": "[1]; 16.5 Gy plus 9/16 inch wound, TSN6 5 μg/day s.c. days 2, 7, 10, irradiated vehicle ~30 days, no radiation ~14 days", "value": "about 16 days post-irradiation"}, {"measurement": "combined injury (overall)", "setting": "[1]; 16.5 Gy plus wound, TSN6 5 μg/day s.c. days 2, 7, 10 (FIG. 7)", "value": "Mitigation of combined injury"}, {"measurement": "characteristics of radiation dermatitis (hair loss, scale, erythema, ulceration) including combined score", "setting": "[1]; [3]", "value": "markedly reduced"}, {"measurement": "rate of wound closure / wound repair", "setting": "[1]; [3]", "value": "increased the rate of wound closure"}, {"measurement": "radiation dermatitis in images of mice", "setting": "[1]; 57, 71 and 75/79 days post-irradiation, vs vehicle (FIG. 13)", "value": "vast improvement; also recorded: improves radiation dermatitis"}, {"measurement": "wound closure", "setting": "[1]; 79 days post-irradiation (FIG. 13C)", "value": "full wound closure"}, {"measurement": "hair regrowth", "setting": "[1]; 79 days post-irradiation, vehicle: no hair regrowth (FIG. 13)", "value": "hair regrowth; also recorded: regrows pigmented hair"}, {"measurement": "epidermal proliferation in vivo (Ki-67+ cells in epidermis of grafts)", "setting": "[2]; 1 μM peptide vs scrambled, P=0.08 (FIG. 4)", "value": "stimulates epidermal proliferation"}, {"measurement": "human hair follicle formation in grafted DECs", "setting": "[2]; 12 weeks after grafting, human HLA staining, vs TSN6-scrambled (FIG. 3)", "value": "increases human hair follicle formation"}]}]}
